Data as given in patent publication US7192581B2, “Lactobacillus reuteri useful as probiotics” (Probionic Corp., priority 2001, dated 2007).
Converted amounts (≈) assume the structure as drawn. Where two headings read alike, the source gives them in different places.

Tested on: #Probio-16
Experiment: Antibiotic susceptibility of #Probio-16 (paper disc)
Format: cell-based, Lactobacillus reuteri
Method: Antibiotic susceptibility of #Probio-16 was assayed according to Microbiology procedures handbook vol. 1 (Henry D. Isenberg, ASM) and Korean Pat. Publication No. 91-4366. In this regard, 13 antibiotics, that is, cephalexcin, erythromycin, flumequinine, furazolidine, gentamycin, procaine, penicillin G, norflaxacine, spectinomycin, tetracycline, tiamuline, neomycin, chloramphenicol, and kanamycin, were dissolved in appropriate solvents. By concentrations, the prepared antibiotic solutions were inoculated in an amount of 30 μl onto a paper disc which was then allowed to stand for 1 hour at 4° C. Inhibitory circles emerging after 24 hours of anaerobic incubation were measured.
Assay of #Probio-16 for antibiotic susceptibility was conduced according to Microbiology Procedures Handbook vol. 1 (Henry D. Isenberg, ASM) and Korean Pat. Publication No. 91-4366, with regard to 13 antibiotics, including cephalexcin, erythromycin, flumequinine, furazolidine, gentamycin, procaine, penicillin G, norflaxacine, spectinomycin, tetracycline, tiamuline, neomycin, chloramphenicol, and kanamycin. By concentrations, antibiotic solutions were inoculated in an amount of 30 μl onto a paper disc which was then allowed to stand for 1 hour at 4° C. Inhibitory circles emerging after 24 hours of anaerobic incubation were measured.

[1] = Limosilactobacillus reuteri, against #Probio-16, 24 hours anaerobic incubation (Table 3), read-out: MIC
[2] = Limosilactobacillus reuteri, against Lactobacillus reuteri Probio-16, read-out: minimal inhibitory concentration (MIC)
[3] = against #Probio-16, 24 hours anaerobic incubation (Table 3)
[4] = against Lactobacillus reuteri Probio-16 (unit not given)
[5] = against Lactobacillus reuteri Probio-16

| Compound | MIC [1] [µg/mL] | MIC [2] [µg/mL] | MIC [3] [µg/mL] | minimal inhibitory concentration (MIC) [4] | minimal inhibitory concentration (MIC) [5] |
| --- | --- | --- | --- | --- | --- |
| CC[C@H]1OC(=O)[C@H](C)[C@@H](O[C@H]2C[C@@](C)(OC)[C@@H](O)[C@H](C)O2)[C@H](C)[C@@H](O[C@@H]2O[C@H](C)C[C@H](N(C)C)[C@H]2O)[C@](C)(O)C[C@@H](C)C(=O)[C@H](C)[C@@H](O)[C@]1(C)O [Erythromycin] | 4 (≈ 5.45 µM) | 4 (≈ 5.45 µM) |  |  |  |
| CCn1cc(C(=O)O)c(=O)c2cc(F)c(N3CCNCC3)cc21 [Norflaxacine] |  |  | 1000 (≈ 3130 µM) | 100 |  |
| NC[C@@H]1O[C@H](O[C@H]2[C@@H](O)[C@H](O[C@@H]3[C@@H](O)[C@H](N)C[C@H](N)[C@H]3O[C@H]3O[C@H](CN)[C@@H](O)[C@H](O)[C@H]3N)O[C@@H]2CO)[C@H](N)[C@@H](O)[C@@H]1O [Neomycine] |  |  | 100 (≈ 163 µM) |  | 100 µg/mL (≈ 163 µM) |
| CN(C)[C@@H]1C(O)=C(C(N)=O)C(=O)[C@@]2(O)C(O)=C3C(=O)c4c(O)cccc4[C@@](C)(O)[C@H]3C[C@@H]12 [Tetracycline] | 1500 (≈ 3380 µM) | 1500 (≈ 3380 µM) |  |  |  |
| CC1=C(C(=O)O)N2C(=O)[C@@H](NC(=O)[C@H](N)c3ccccc3)[C@H]2SC1 [Cephalexcin] |  |  | 90 (≈ 259 µM) |  | 90 µg/mL (≈ 259 µM) |
| C=C[C@]1(C)C[C@@H](OC(=O)CSCCN(CC)CC)[C@]2(C)[C@H](C)CC[C@]3(CCC(=O)[C@H]32)[C@@H](C)[C@@H]1O [Tiamuline] | 300 (≈ 608 µM) | 300 (≈ 608 µM) |  |  |  |
| CN[C@@H]1[C@H](O)[C@H](NC)[C@H]2O[C@@]3(O)C(=O)C[C@@H](C)O[C@H]3O[C@@H]2[C@H]1O [Spectinomycine] | 2500 (≈ 7520 µM) | 2500 (≈ 7520 µM) |  |  |  |
| CC1CCc2cc(F)cc3c(=O)c(C(=O)O)cn1c23 (centres unmarked) [Flumequinine] |  |  | 4000 (≈ 15300 µM) |  | 4,000 μg/ml |
| O=C(N[C@H](CO)[C@H](O)c1ccc([N+](=O)[O-])cc1)C(Cl)Cl [Chloramphenicol] | 200 (≈ 619 µM) | 200 (≈ 619 µM) |  |  |  |
| CC1(C)S[C@@H]2[C@H](NC(=O)Cc3ccccc3)C(=O)N2[C@H]1C(=O)O.CCN(CC)CCOC(=O)c1ccc(N)cc1 [procaine Penicilline G] |  |  | 4 | 4 |  |
| NC[C@H]1O[C@H](O[C@H]2[C@H](O)[C@@H](O[C@H]3O[C@H](CO)[C@@H](O)[C@H](N)[C@H]3O)[C@H](N)C[C@@H]2N)[C@H](O)[C@@H](O)[C@@H]1O [Kanamycine] | 4000 (≈ 8260 µM) | 4000 (≈ 8260 µM) |  |  |  |
| Gentamycine |  |  | 100 |  | 100 µg/mL |
| O=C1OCCN1/N=C/c1ccc([N+](=O)[O-])o1 [Furazolidine] |  |  | 90 (≈ 400 µM) |  | 90 µg/mL (≈ 400 µM) |
